In US10280166B2, “2-(1H-indazol-3-yl)-3H-imidazo[4,5-B]pyridine and therapeutic uses thereof” (Samumed, LLC, priority 2014, dated 2019):

How the values were obtained:
Format in all cases: cell-based
[1] = tested on: Wnt activity (SW480 colon carcinoma cells stably expressing the Sp5-Luc reporter gene); assay: Sp5-Luc reporter gene screening assay for Wnt activity in SW480 cells; settings: Homo sapiens, 42 h incubation, luminescence
In short: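 SW480 cells stably carrying an Sp5 promoter (eight TCF/LEF sites)-luciferase reporter were plated overnight in 10% FCS medium. BrightGlo luminescence was normalised to DMSO wells, and IC50 was obtained by four-parameter fit.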

[2] = tested on: primary human fibroblasts derived from IPF patients (LL29 cells); assay: Inhibition of fibrosis (αSMA) in TGF-β1 treated primary human fibroblasts from IPF patients; settings: Fibroblast, 96 h, TGF-β1 20 ng/mL, 4 days, % αSMA positive cells
In short: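 IPF patient-derived LL29 lung fibroblasts in 1% FBS were treated with compound (11 points, 10 μM to 1.87 nM, 0.1% DMSO) and then 20 ng/mL TGF-β1 for 4 days at 37° C. Fraction of SYTOX-negative cells positive for αSMA was quantified by immunofluorescence imaging and normalized to TGF-β1 controls. EC50 came from non-linear regression over triplicate wells.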

[3] = tested on: primary human mesenchymal stem cells (hMSCs); assay: Chondrogenesis induction screen in primary human mesenchymal stem cells; settings: 6 days, chondrogenic nodules, dose range 10-2700 nM
Protocol: The above synthesized compounds were screened using primary human mesenchymal stem cells (hMSCs) to determine their ability to induce chondrogenesis (process by which cartilage is developed).
Primary human mesenchymal stem cells (hMSCs) were purchased from Lonza (Walkersville, Md.) and expanded in Mesenchymal Stem Cell Growth Media (Lonza). Cells between passage 3 and 6 were used for the experiments.
Each compound was dissolved in DMSO as a 10 mM stock and used to prepare compound source plates. Serial dilution (1:3, 6-point dose-response curves from 2700 nM to 10 nM) and compound transfer was performed using the ECHO 550 (Labcyte, Sunnyvale, Calif.) into 96-well clear bottom assay plates (Greiner Bio-One) with appropriate DMSO backfill for a final DMSO concentration of 0.03%. hMSCs were plated at 20,000 cells/well in 250 μL/well Incomplete Chondrogenic Induction Medium (Lonza; DMEM, dexamethasone, ascorbate, insulin-transferrin-selenium [ITS supplement], gentamycin-amphotericin [GA-1000], sodium pyruvate, proline and L-glutamine). TGF-β3 (10 ng/mL) was used as a positive control for differentiation while negative control wells were treated with 75 nL DMSO for normalization and calculating EC50 values. Cells were incubated at 37° C. and 5% CO2 for 6 days. To image chondrogenic nodules, the cells were fixed using 4% formaldehyde (Electron Microscopy Sciences), and stained with 2 μg/mL Rhodamine B (Sigma-Aldrich) and 20 μM Nile Red (Sigma-Aldrich) [Johnson K., et.al, A Stem Cell—Based Approach to Cartilage Repair, Science, (2012), 336(6082), 717-721]. The nodules imaged (4 images per well at 4× magnification) by excitation at 531 nm and emission at 625 nm and quantified using the CellInsight CX5 (Thermo Scientific). Number of nodules in each well was normalized to the average of 3 DMSO treated wells on the same plate using Excel (Microsoft Inc.). The normalized averages (fold change over DMSO) of 3 replicate wells for each compound concentration were calculated. Due to solubility limitations of some of the compounds, curve fitting was incomplete leading to inaccurate EC50 determinations.
Using TGF-β3 as a positive control, the concentration of test compounds required to induce equivalent levels of chondrogenesis is reported. In addition, the maximum activity of each compound and the respective dose that each compound reached maximum chondrogenesis activity is reported.

Structure (SMILES)	IC50 [1] [nM]	EC50 [2] [nM]	Conc (nM) of Max. activity [3] [nM]
CC(C)CC(=O)Nc1cncc(-c2ccc3[nH]nc(-c4nc5c(-c6cccc(F)c6)ccnc5[nH]4)c3c2)c1 [Compound 2, N-(5-(3-(7-(3-Fluorophenyl)-3H-imidazo[4,5-b]pyridin-2-yl)-1H-indazol-5-yl)pyridin-3-yl)-3-methylbutanamide]	2	0.041	30
CN(C)c1cncc(-c2ccc3[nH]nc(-c4nc5c(-c6cccc(F)c6)ccnc5[nH]4)c3c2)c1 [Compound 7, 5-(3-(7-(3-Fluorophenyl)-3H-imidazo[4,5-b]pyridin-2-yl)-1H-indazol-5-yl)-N,N-dimethylpyridin-3-amine]	< 1	0.066	100
Fc1cccc(-c2ccnc3[nH]c(-c4n[nH]c5ccc(-c6cncc(CN7CCC(F)(F)C7)c6)cc45)nc23)c1 [Compound 25, 2-(5-(5-((3,3-Difluoropyrrolidin-1-yl)methyl)pyridin-3-yl)-1H-indazol-3-yl)-7-(3-fluorophenyl)-3H-imidazo[4,5-b]pyridine]	< 1	0.099	30
Nc1cncc(-c2ccc3[nH]nc(-c4nc5c(-c6ccccc6F)ccnc5[nH]4)c3c2)c1 [Compound 55, 5-(3-(7-(2-Fluorophenyl)-3H-imidazo[4,5-b]pyridin-2-yl)-1H-indazol-5-yl)pyridin-3-amine]	1.8	0.017	30
c1cncc(-c2ccc3[nH]nc(-c4nc5c(-c6cccnc6)ccnc5[nH]4)c3c2)c1 [Compound 82, 7-(Pyridin-3-yl)-2-(5-(pyridin-3-yl)-1H-indazol-3-yl)-3H-imidazo[4,5-b]pyridine]	3.5	0.303	10
Cc1ccncc1-c1ccc2[nH]nc(-c3nc4c(-c5ccncc5)ccnc4[nH]3)c2c1 [Compound 109, 2-(5-(4-Methylpyridin-3-yl)-1H-indazol-3-yl)-7-(pyridin-4-yl)-3H-imidazo[4,5-b]pyridine]	13.7	0.781	30
CCCCC(=O)Nc1cncc(-c2ccc3[nH]nc(-c4nc5c(-c6ccccn6)ccnc5[nH]4)c3c2)c1 [Compound 148, N-(5-(3-(7-(Pyridin-2-yl)-3H-imidazo[4,5-b]pyridin-2-yl)-1H-indazol-5-yl)pyridin-3-yl)pentanamide]	8.1	0.085	100
Cc1cn(-c2ccnc3[nH]c(-c4n[nH]c5ccc(-c6cncc(NC(=O)CC(C)C)c6)cc45)nc23)cn1 [Compound 184, 3-Methyl-N-(5-(3-(7-(4-methyl-1H-imidazol-1-yl)-3H-imidazo[4,5-b]pyridin-2-yl)-1H-indazol-5-yl)pyridin-3-yl)butanamide]	2.3	0.142	300
CCCC(=O)Nc1cncc(-c2ccc3[nH]nc(-c4nc5c(-c6ccsc6)ccnc5[nH]4)c3c2)c1 [Compound 277, N-(5-(3-(7-(Thiophen-3-yl)-3H-imidazo[4,5-b]pyridin-2-yl)-1H-indazol-5-yl)pyridin-3-yl)butyramide]	1	0.016	30
CC(C)Nc1cncc(-c2ccc3[nH]nc(-c4nc5c(-c6ccoc6)ccnc5[nH]4)c3c2)c1 [Compound 298, 5-(3-(7-(Furan-3-yl)-3H-imidazo[4,5-b]pyridin-2-yl)-1H-indazol-5-yl)-N-isopropylpyridin-3-amine]	5	0.102	30
CC(C)(C)C(=O)Nc1cncc(-c2ccc3[nH]nc(-c4nc5c(-c6ccc(F)s6)ccnc5[nH]4)c3c2)c1 [Compound 346, N-(5-(3-(7-(5-Fluorothiophen-2-yl)-3H-imidazo[4,5-b]pyridin-2-yl)-1H-indazol-5-yl)pyridin-3-yl)pivalamide]	0.4	0.009	300
Cc1ccc(-c2ccnc3[nH]c(-c4n[nH]c5ccc(-c6cncc(NC(=O)C(C)C)c6)cc45)nc23)s1 [Compound 373, N-(5-(3-(7-(5-Methylthiophen-2-yl)-3H-imidazo[4,5-b]pyridin-2-yl)-1H-indazol-5-yl)pyridin-3-yl)isobutyramide]	6.4	0.045	30
CCCC(=O)Nc1cncc(-c2ccc3[nH]nc(-c4nc5c(-c6cc(F)cc(CNS(C)(=O)=O)c6)ccnc5[nH]4)c3c2)c1 [Compound 433, N-(5-(3-(7-(3-Fluoro-5-(methylsulfonamidomethyl)phenyl)-3H-imidazo[4,5-b]pyridin-2-yl)-1H-indazol-5-yl)pyridin-3-yl)butyramide]	3	> 10	2700
CCCCC(=O)Nc1cncc(-c2ccc3[nH]nc(-c4nc5c(-c6cc(F)cc(NCCN(C)C)c6)ccnc5[nH]4)c3c2)c1 [Compound 460, N-(5-(3-(7-(3-((2-(Dimethylamino)ethyl)amino)-5-fluorophenyl)-3H-imidazo[4,5-b]pyridin-2-yl)-1H-indazol-5-yl)pyridin-3-yl)pentanamide]	11.6	0.111	30
Fc1cccc(-c2ccnc3[nH]c(-c4n[nH]c5ccc(-c6cn[nH]c6)cc45)nc23)c1 [Compound 1875, 2-(5-(1H-Pyrazol-4-yl)-1H-indazol-3-yl)-7-(3-fluorophenyl)-3H-imidazo[4,5-b]pyridine]	5	0.009	2700
COc1cncc(-c2ccc3[nH]nc(-c4nc5c(-c6cccc(F)c6)ccnc5[nH]4)c3c2)c1 [Compound 1884, 7-(3-Fluorophenyl)-2-(5-(5-methoxypyridin-3-yl)-1H-indazol-3-yl)-3H-imidazo[4,5-b]pyridine]	> 10000	9.99	
Oc1cncc(-c2ccc3[nH]nc(-c4nc5c(-c6cccc(F)c6)ccnc5[nH]4)c3c2)c1 [Compound 1885, 5-(3-(7-(3-Fluorophenyl)-3H-imidazo[4,5-b]pyridin-2-yl)-1H-indazol-5-yl)pyridin-3-ol]	11	0.009	100
O=C(CC1CCCCC1)Nc1cncc(-c2ccc3[nH]nc(-c4nc5c(-c6cccc(F)c6)ccnc5[nH]4)c3c2)c1 [Compound 1887, 2-Cyclohexyl-N-(5-(3-(7-(3-fluorophenyl)-3H-imidazo[4,5-b]pyridin-2-yl)-1H-indazol-5-yl)pyridin-3-yl)acetamide]	> 10000	9.99	
Fc1cccc(-c2ccnc3[nH]c(-c4n[nH]c5ccc(-c6ccncc6)cc45)nc23)c1 [Compound 1888, 7-(3-Fluorophenyl)-2-(5-(pyridin-4-yl)-1H-indazol-3-yl)-3H-imidazo[4,5-b]pyridine]	> 10000	9.99	
Fc1cccc(-c2ccnc3[nH]c(-c4n[nH]c5ccc(-c6ccccn6)cc45)nc23)c1 [Compound 1889, 7-(3-Fluorophenyl)-2-(5-(pyridin-2-yl)-1H-indazol-3-yl)-3H-imidazo[4,5-b]pyridine]	> 1000	0.018	
Fc1cccc(-c2ccnc3[nH]c(-c4n[nH]c5ccc(-c6cnccn6)cc45)nc23)c1 [Compound 1890, 7-(3-Fluorophenyl)-2-(5-(pyrazin-2-yl)-1H-indazol-3-yl)-3H-imidazo[4,5-b]pyridine]	39	0.167	
CN(C)CC(=O)Nc1cncc(-c2ccc3[nH]nc(-c4nc5c(-c6cccc(F)c6)ccnc5[nH]4)c3c2)c1 [Compound 2373, 2-(Dimethylamino)-N-(5-(3-(7-(3-fluorophenyl)-3H-imidazo[4,5-b]pyridin-2-yl)-1H-indazol-5-yl)pyridin-3-yl)acetamide]	91	0.233	
